ChEMBL document CHEMBL1287680, “C-11 diamino cryptolepine derivatives NSC748392, NSC748393, and NSC748394: anticancer profile and G-quadruplex stabilization” (Bioorg Med Chem Lett, 2010)

Legend:
Nucleic Acid [1] = settings: Homo sapiens
Description: Binding affinity to human G-quadruplex DNA assessed as change in melting temperature by FRET-melting assay

Nucleic Acid [2] = settings: Homo sapiens; remark: listed apart in the source
Description: Binding affinity to human duplex DNA assessed as change in melting temperature by FRET-melting assay

OVCAR-5 = assay: cells; settings: Homo sapiens
Description: Anticancer activity against human OVCAR5 cells

OVCAR-3 = assay: cells; settings: Homo sapiens
Description: Anticancer activity against human OVCAR-3 cells

UACC-257 = assay: cells; settings: Homo sapiens
Description: Anticancer activity against human UACC257 cells

SK-MEL-28 = assay: cells; settings: Homo sapiens
Description: Anticancer activity against human SK-MEL-28 cells

M14 = assay: cells; settings: Homo sapiens
Description: Anticancer activity against human M14 cells

U-251 = assay: cells; settings: Homo sapiens
Description: Anticancer activity against human U251 cells

SNB-75 = assay: cells; settings: Homo sapiens
Description: Anticancer activity against human SNB75 cells

KM12 = assay: cells; settings: Homo sapiens
Description: Anticancer activity against human KM12 cells

HCT-15 = assay: cells; settings: Homo sapiens
Description: Anticancer activity against human HCT15 cells

HCT-116 = assay: cells; settings: Homo sapiens
Description: Anticancer activity against human HCT116 cells

NCI-H522 = assay: cells; settings: Homo sapiens
Description: Anticancer activity against human NCI-H522 cells

NCI-H460 = assay: cells; settings: Homo sapiens
Description: Anticancer activity against human NCI-H460 cells

NCI-H322M = assay: cells; settings: Homo sapiens
Description: Anticancer activity against human NCI-H322M cells

NCI-H23 = assay: cells; settings: Homo sapiens
Description: Anticancer activity against human NCI-H23 cells

EKVX = assay: cells; settings: Homo sapiens
Description: Anticancer activity against human EKVX cells

MOLT-4 = assay: cells; settings: Homo sapiens
Description: Anticancer activity against human MOLT4 cells

HL-60(TB) = assay: cells; settings: Homo sapiens
Description: Anticancer activity against human HL-60(TB) cells

CCRF-CEM = assay: cells; settings: Homo sapiens
Description: Anticancer activity against human CCRF-CEM cells

Vero = assay: cells; settings: Chlorocebus sabaeus, 48 h
Description: Cytotoxicity against african green monkey Vero cells after 48 hrs by MTT assay

MDA-MB-435 = assay: cells; settings: Homo sapiens
Description: Anticancer activity against human MDA-MB-435 cells

cells = settings: Homo sapiens, Hs-578T
Description: Anticancer activity against human Hs 578T cells

NCI/ADR-RES = assay: cells; settings: Homo sapiens
Description: Anticancer activity against human NCI/ADR-RES cells

MCF7 = assay: cells; settings: Homo sapiens
Description: Anticancer activity against human MCF7 cells

PC-3 = assay: cells; settings: Homo sapiens
Description: Anticancer activity against human PC3 cells

UO-31 = assay: cells; settings: Homo sapiens
Description: Anticancer activity against human UO31 cells

SN12C = assay: cells; settings: Homo sapiens
Description: Anticancer activity against human SN12C cells

CAKI-1 = assay: cells; settings: Homo sapiens
Description: Anticancer activity against human Caki1 cells

A498 = assay: cells; settings: Homo sapiens
Description: Anticancer activity against human A498 cells

786-0 = assay: cells; settings: Homo sapiens
Description: Anticancer activity against human 786-0 cells

`C[n+]1c2ccccc2c(Nc2ccc(N3CCCCC3)cc2)c2[nH]c3ccccc3c21.[Cl-]` showed a ΔTm (Nucleic Acid [1]) of 4.2 °C, a ΔTm (Nucleic Acid [2]) of 1.2 °C and a GI50 (OVCAR-5; OVCAR-5, read-out: pGI50 (converted)) of 1070 nM. For the same compound, the CC50 (OVCAR-5; OVCAR-5, read-out: pLC50 (converted)) was 5500 nM, the TGI (OVCAR-5; OVCAR-5, read-out: pTGI) was 2400 nM and the GI50 (OVCAR-3; OVCAR-3, read-out: pGI50 (converted)) was 224 nM. It also gave a CC50 (OVCAR-3; OVCAR-3, read-out: pLC50 (converted)) of 933 nM, a TGI (OVCAR-3; OVCAR-3, read-out: pTGI) of 457 nM and a GI50 (UACC-257; UACC-257, read-out: pGI50 (converted)) of 1230 nM. It also gave a TGI (UACC-257; UACC-257, read-out: pTGI) of 2690 nM, a GI50 (SK-MEL-28; SK-MEL-28, read-out: pGI50 (converted)) of 372 nM and a CC50 (SK-MEL-28; SK-MEL-28, read-out: pLC50 (converted)) of 3470 nM. For the same compound, the TGI (SK-MEL-28; SK-MEL-28, read-out: pTGI) was 1150 nM, the GI50 (M14; M14, read-out: pGI50 (converted)) was 389 nM and the CC50 (M14; M14, read-out: pLC50 (converted)) was 4070 nM. It also gave a TGI (M14; M14, read-out: pTGI) of 1450 nM, a GI50 (U-251; U-251, read-out: pGI50 (converted)) of 288 nM and a CC50 (U-251; U-251, read-out: pLC50 (converted)) of 3630 nM. It also gave a TGI (U-251; U-251, read-out: pTGI) of 1230 nM, a GI50 (SNB-75; SNB-75, read-out: pGI50 (converted)) of 692 nM and a CC50 (SNB-75; SNB-75, read-out: pLC50 (converted)) of 4470 nM. It also gave a TGI (SNB-75; SNB-75, read-out: pTGI) of 2000 nM, a GI50 (KM12; KM12, read-out: pGI50 (converted)) of 372 nM and a CC50 (KM12; KM12, read-out: pLC50 (converted)) of 5130 nM. It also gave a TGI (KM12; KM12, read-out: pTGI) of 1480 nM, a GI50 (HCT-15; HCT-15, read-out: pGI50 (converted)) of 170 nM and a CC50 (HCT-15; HCT-15, read-out: pLC50 (converted)) of 912 nM. For the same compound, the TGI (HCT-15; HCT-15, read-out: pTGI) was 398 nM, the GI50 (HCT-116; HCT-116, read-out: pGI50 (converted)) was 132 nM and the CC50 (HCT-116; HCT-116, read-out: pLC50 (converted)) was 100000 nM. For the same compound, the TGI (HCT-116; HCT-116, read-out: pTGI) was 363 nM, the GI50 (NCI-H522; NCI-H522, read-out: pGI50 (converted)) was 741 nM and the TGI (NCI-H522; NCI-H522, read-out: pTGI) was 2140 nM. It also gave a GI50 (NCI-H460; NCI-H460, read-out: pGI50 (converted)) of 145 nM, a CC50 (NCI-H460; NCI-H460, read-out: pLC50 (converted)) of 2290 nM and a TGI (NCI-H460; NCI-H460, read-out: pTGI) of 468 nM. For the same compound, the GI50 (NCI-H322M; read-out: pGI50 (converted)) was 1020 nM, the CC50 (NCI-H322M; read-out: pLC50 (converted)) was 5500 nM and the TGI (NCI-H322M; read-out: pTGI) was 2400 nM. For the same compound, the GI50 (NCI-H23; NCI-H23, read-out: pGI50 (converted)) was 398 nM, the CC50 (NCI-H23; NCI-H23, read-out: pLC50 (converted)) was 6610 nM and the TGI (NCI-H23; NCI-H23, read-out: pTGI) was 1700 nM. For the same compound, the GI50 (EKVX; read-out: pGI50 (converted)) was 427 nM, the CC50 (EKVX; read-out: pLC50 (converted)) was 4680 nM and the TGI (EKVX; read-out: pTGI) was 1860 nM. For the same compound, the GI50 (MOLT-4; MOLT-4, read-out: pGI50 (converted)) was 70.8 nM, the CC50 (MOLT-4; MOLT-4, read-out: pLC50 (converted)) was over 100000 nM and the TGI (MOLT-4; MOLT-4, read-out: pTGI) was 8710 nM. For the same compound, the GI50 (HL-60(TB); HL-60, read-out: pGI50 (converted)) was 617 nM, the CC50 (HL-60(TB); HL-60, read-out: pLC50 (converted)) was over 100000 nM and the GI50 (CCRF-CEM; read-out: pGI50 (converted)) was 162 nM. It also gave a CC50 (CCRF-CEM; read-out: pLC50 (converted)) of 2000 nM, a TGI (CCRF-CEM; read-out: pTGI) of 427 nM and an IC50 (Vero) of 4830 nM. For the same compound, the GI50 (MDA-MB-435; MDA-MB-435, read-out: pGI50 (converted)) was 447 nM, the CC50 (MDA-MB-435; MDA-MB-435, read-out: pLC50 (converted)) was 4900 nM and the TGI (MDA-MB-435; MDA-MB-435, read-out: pTGI) was 1660 nM. For the same compound, the GI50 (cells; read-out: pGI50 (converted)) was 275 nM, the TGI (cells; read-out: pTGI) was 1000 nM and the GI50 (NCI/ADR-RES; read-out: pGI50 (converted)) was 617 nM. The TGI (NCI/ADR-RES; read-out: pTGI) was 2450 nM, the GI50 (MCF7; MCF7, read-out: pGI50 (converted)) was 126 nM and the CC50 (MCF7; MCF7, read-out: pLC50 (converted)) was 912 nM. It also gave a TGI (MCF7; MCF7, read-out: pTGI) of 339 nM, a GI50 (PC-3; PC-3, read-out: pGI50 (converted)) of 195 nM and a CC50 (PC-3; PC-3, read-out: pLC50 (converted)) of 3240 nM. For the same compound, the TGI (PC-3; PC-3, read-out: pTGI) was 631 nM, the GI50 (UO-31; UO-31, read-out: pGI50 (converted)) was 145 nM and the CC50 (UO-31; UO-31, read-out: pLC50 (converted)) was 3020 nM. For the same compound, the TGI (UO-31; UO-31, read-out: pTGI) was 832 nM, the GI50 (SN12C; read-out: pGI50 (converted)) was 204 nM and the CC50 (SN12C; read-out: pLC50 (converted)) was 6760 nM. The TGI (SN12C; read-out: pTGI) was 1410 nM, the GI50 (CAKI-1; CAKI-1, read-out: pGI50 (converted)) was 234 nM and the CC50 (CAKI-1; CAKI-1, read-out: pLC50 (converted)) was 3160 nM. It also gave a TGI (CAKI-1; CAKI-1, read-out: pTGI) of 794 nM, a GI50 (A498; A498, read-out: pGI50 (converted)) of 178 nM and a CC50 (A498; A498, read-out: pLC50 (converted)) of 2140 nM. The TGI (A498; A498, read-out: pTGI) was 537 nM, the GI50 (786-0; 786-0, read-out: pGI50 (converted)) was 457 nM and the CC50 (786-0; 786-0, read-out: pLC50 (converted)) was 5500 nM. For the same compound, the TGI (786-0; 786-0, read-out: pTGI) was 1700 nM.
